Source: patent publication US20120015925A1, “NOVEL BENZOTHIAZEPINE AND BENZOTHIEPINE COMPOUNDS” (ASAHI KASEI PHARMA CORPORATION, priority 2004, published 2012)

Tests used:
rats dosed cholic acid = assay: Lowering effect on bile acid concentrations in portal vein blood in rats dosed cholic acid; assay type: in vivo, rat
Protocol: In the present Test Example, a lowering effect on bile acid concentrations in portal vein blood in rats dosed cholic acid was evaluated according to the method described in Jpn. Pharmacol. Ther., Vol. 24 Supplement, 1996, 103(S-577)-110(S-584).
That is, SD (IGS) strain male rats at 7 to 9 weeks of age were fasted one day before the administration date. […] The blood was collected from the portal vein 2 hours after the forced oral administration, and a total bile acid value in serum was measured to examine the effect of the test compound (n=6). As a control, another group (n=6) merely received cholic acid (200 mg/kg), to which the same procedure was applied. The cholic acid value was measured using the commercially available kit (brand name: Total Bile Acid-Test Wako, supplied form Wako Pure Chemical Industries). Defining the value in the control group to which no test compound had been administered as being 100%, a reduction rate (%) of the bile acid value when a certain amount of the test compound had been administered was calculated.

rat IBAT = target: T1, rat IBAT (Rattus norvegicus, UniProt Q62633); assay: In vitro assay using Cos 7 cells, transiently expressed rat IBAT; assay type: cell-based; settings: 37° C., 60 minutes
T1 sequence (Q62633 1-348): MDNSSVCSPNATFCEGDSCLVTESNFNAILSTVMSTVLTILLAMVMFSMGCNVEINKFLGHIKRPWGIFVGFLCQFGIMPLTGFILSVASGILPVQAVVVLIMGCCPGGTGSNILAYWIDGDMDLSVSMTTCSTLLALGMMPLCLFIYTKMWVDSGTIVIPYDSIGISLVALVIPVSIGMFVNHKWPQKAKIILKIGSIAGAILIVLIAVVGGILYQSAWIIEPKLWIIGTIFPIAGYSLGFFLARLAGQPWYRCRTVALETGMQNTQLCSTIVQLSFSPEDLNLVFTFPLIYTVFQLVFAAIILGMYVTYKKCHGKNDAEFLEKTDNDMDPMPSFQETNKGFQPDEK
Protocol: In the present Test Example, an in vitro assay of compounds using Cos 7 cells as to inhibitory activity on transiently expressed human IBAT or rat IBAT transporter was performed according to the method described in Am. J. Physiol., 274, G157-169.
That is, […] cells/well of Cos 7 cells were seeded in a 24-well plate, and after one day, the cells were transfected with 0.3 μg/well of cDNA of human IBAT or rat IBAT using FuGENE6 (supplied from Roche). After culturing for one day after the transfection, the cells were washed once with the assay buffer, i.e., Hanks buffer containing 25 mM glucose and 10 mM HEPES (pH 7.4). The assay buffer was then replaced with the assay buffer containing the test compound. [^3H]-Taurocholate at a final concentration of 8 μM was added thereto and incubated at 37° C. for 60 minutes so that [^3H]-taurocholate was taken into Cos 7 cells by the action of human IBAT or rat IBAT. The cells were washed twice with the assay buffer containing 1 mM taurocholate, and subsequently lysed with 0.2 M NaOH to stop the reaction. The cell lysate was added to 4 mL of liquid scintillation cocktail, which was then thoroughly vortexed. Then the radioactivity was measured using the liquid scintillation counter.

Caco-2 cell = assay: Gastrointestinal toxicity: cytotoxicity against Caco-2 cell (LDH activity); assay type: cell-based, human; settings: 2 hours, LDH activity in medium relative to cell lysis agent = 100%
Protocol: That is, 10,000 cells/well of Caco-2 cells (purchased from ATCC) were seeded in a 96-well plate [MEM-E medium, 10% FBS (Fetal Bovine Serum), 1% NEAA (Non Essential Amino Acid) solution, supplied from Gibco]. After culturing for 48 hours, the test compound diluted with the medium was added to each well. After 2 hours, 50 μL of the medium was collected, and an LDH activity in the medium was measured using an LDH activity measurement kit (CytoTox96 Non-Radioactive Cytotoxicity Assay, supplied from Promega). Defining the LDH activity of the Caco-2 cells treated with a cell lysis agent as being 100%, the relative activity was calculated as a index of the cytotoxicity.

[1] = test system: rats fed cholesterol food; assay: Blood cholesterol lowering effect in rats fed cholesterol food; assay type: in vivo, rat; settings: 0.3 mg/kg per administration, oral, twice per day; SD (IGS) male rats; serum 3 hours after final administration
Protocol: In the present Test Example, a blood cholesterol lowering effect on rats fed cholesterol food was evaluated according to the method described in J. Lipid Res., 1995, 36, 1098-1105.
That is, the food containing 0.4% cholesterol and 0.5% bile acid was given to SD (IGS) strain male rats at 7 to 9 weeks of age for 5 days in advance of the test date, to increase blood cholesterol levels. The rats in which the blood cholesterol level had been obviously elevated from the level before loading the cholesterol food were selected as the subjects in the test. Colestimide (brand name: Cholebine 70% granules, supplied from Mitsubishi Tokyo Pharmaceutical Inc.) which is an anion exchange resin drug was suspended in distilled water, and the test compound was dissolved or suspended in distilled water. They were orally administered forcibly twice per day everyday from the starting date (each n=8). The blood was collected from jugular vein 3 hours after the drug administration on the final day of the experiment, and the cholesterol level in serum was measured to examine the effect of the test compound. As a control, another group (n=8) was merely fed cholesterol food, to which distilled water (1 mL/kg) was administered and the same procedure was applied. The total cholesterol value and the HDL cholesterol value were measured using commercially available kits. The value obtained by subtracting the HDL cholesterol value from the total cholesterol value was regarded as an LDL+VLDL cholesterol value.

human IBAT = target: T2, human IBAT (Homo sapiens, UniProt Q12908); assay: In vitro assay using Cos 7 cells, transiently expressed human IBAT; assay type: cell-based; settings: 37° C., 60 minutes
T2 sequence (Q12908 1-348): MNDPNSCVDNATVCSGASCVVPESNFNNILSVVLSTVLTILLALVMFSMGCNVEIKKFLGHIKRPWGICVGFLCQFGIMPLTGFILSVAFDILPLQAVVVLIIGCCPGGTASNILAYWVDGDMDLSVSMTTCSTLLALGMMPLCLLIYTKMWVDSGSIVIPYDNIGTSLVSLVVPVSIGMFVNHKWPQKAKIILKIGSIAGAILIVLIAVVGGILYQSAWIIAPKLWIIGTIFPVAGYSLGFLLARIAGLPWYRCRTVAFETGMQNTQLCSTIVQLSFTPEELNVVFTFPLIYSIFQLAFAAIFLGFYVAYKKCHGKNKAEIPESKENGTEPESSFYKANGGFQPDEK
Procedure, shortened: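 Cos 7 cells transfected with human or rat IBAT cDNA were assayed one day later in Hanks buffer with 25 mM glucose and 10 mM HEPES (pH 7.4) containing compound. [^3H]-taurocholate (8 μM final) uptake ran 60 min at 37° C. Cells were washed with 1 mM taurocholate, lysed in NaOH, and counted by liquid scintillation.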

Caco-2 cells = assay: Measurement of permeability through Caco-2 cell; assay type: in vitro ADME, human; settings: 2 hours
Protocol: Permeability of the compound described in Examples through Caco-2 cells was studied with reference to Artursson Per et al.'s method (Journal of Pharmaceutical Sciences, 79(6): 476-482:1990).
Transwell cell culture chamber (Costar) having a membrane filter coated with collagen (3 μm pores, 0.33 cm^2 growth area) was placed on a 24-well plate. Caco-2 cells (purchased from ATCC) were seeded at the amount of 6.6×10^4 cells/filter (2×10^5 cells/cm^2) (D-MEM medium, 10% FBS (Fetal Bovine Serum), 0.1 mM NEAA (Non Essential Amino Acid), 100 U/mL penicillin, 100 μg/mL streptomycin, supplied from Gibco, and 25 mM glucose). Each Transwell cell culture chamber was placed in each well in a 24-well plate. 0.75 mL of the medium was filled in an external chamber and 0.15 mL of the medium was filled in an internal chamber. The medium was changed every 2 to 3 days, and 18 to 25 days after seeding when a single layer of Caco-2 cells was formed, the cells were used for the test.
In the test for examining the permeability of the compound, the Caco-2 cells cultured in the chamber were used. The internal and external chamber solutions were replaced twice with Hanks balanced salt solution (HBSS) containing 25 mM glucose, 10 mM Hepes and 0.05% Tween 80. […] A permeability coefficient (Papp) was calculated from the formula Papp=dQ/dt/(Co×A). […]

rats dosed bile acid = assay: Model for hepatic disorder associated with cholestasis, Protocol B (bile acid without partial ligation): AST, ALT, ALP; assay type: in vivo, rat; settings: Table 13, Protocol B, ursodeoxycholic acid 50 mg/kg oral twice per day for 3.5 days, N=8, mean±standard error
From the text: (§1) In the present Test Example, a model for the hepatic disorder caused by partial ligation of the bile duct was employed with reference to Kanno's method (Liver, 43, Suppl(1):A126, 2002).
(§2) That is, to the SD (IGS) strain male rats at 7 to 10 weeks of age, the partial ligation of the bile duct was given with opening the abdominal cavity under anesthesia with pentobarbital. Before the operation, the blood was collected from femoral vein, in order to obtain the value before the administration. From the day after the operation, 200 mg/kg of bile acid and the test compound were orally administered forcibly twice per day for 3.5 days (Protocol A). Without giving the partial ligation of the bile duct, 200 mg/kg of bile acid and the test compound were also orally administered forcibly twice per day for 3.5 days (Protocol B). In both cases, the test compound was dissolved or suspended in distilled water or an aqueous solution of 1% HCO 60 (Nippon Chemicals). To the control group, saline was administered. As comparative examples, 25 mg/kg of cholestyramine (supplied from Sigma) or 50 mg/kg of ursodeoxycholic acid (supplied from Mitsubishi Pharma) was administered. For considering the effect of the operation, sham operation (sham group) was performed in some cases. The blood was collected from the abdominal aorta 6 hours after the drug administration on the final day of the experiment. AST (GOT), ALT (GPT) and ALP in the blood were measured using measurement kits (GOT II-HA Test Wako, GPT II-HA Test Wako and Alkaline Phosphor HA Test Wako, all were supplied from Wako Pure Chemical Industries) and using an automatic analyzer (Nitech ANALAYZER SUPER Z818).

[2] = test system: rats with partial ligation of the bile duct dosed bile acid; assay: Model for hepatic disorder associated with cholestasis (partial bile duct ligation model), Protocol A: AST, ALT, ALP; assay type: in vivo, rat; settings: Table 11, Protocol A, ursodeoxycholic acid 50 mg/kg oral twice per day for 3.5 days, N=8, mean±standard error
From the text: as §1, §2

[3] = 0.1 mg/kg oral with cholic acid 200 mg/kg, portal vein serum total bile acid 2 hours after, control = 100%, surfactant HCO-60 (##)

SMILES: CCCCC1(CCCC)CS(=O)(=O)c2ccc(N(C)C)cc2C(c2cccc(NC(=S)Nc3ccc(C[N+]45CCC(c6ccccc6)(CC4)CC5)cc3F)c2)N1.[Br-] (stereo not drawn) [EXAMPLE P342]
- BILE ACID REDUCTION RATE (%) IN RAT MODEL WITH CHOLIC ACID LOADING (rats dosed cholic acid; [3]): 39%
- IC50 (rat IBAT; [3H]-taurocholate 8 μM uptake): 4.8 nM
- CELL TOXICITY AGAINST Caco2 10 μM (Caco-2 cell): <1%
- CELL TOXICITY AGAINST Caco2 30 μM (Caco-2 cell): <1%
- LDL + VLDL REDUCTION RATE (%) IN CHOLESTEROL FED RAT MODEL (THERAPEUTIC MODEL) [1]: 46%
- IC50 (human IBAT; [3H]-taurocholate 8 μM uptake): 15 nM

SMILES: CC(C)NCC(O)COc1cccc2ccccc12 (stereo not drawn) [Propranolol]
- PERMEATION RATIO (PERMEATION × 10^−6 cm/s) (Caco-2 cells; 100 μM in internal chamber, HBSS pH 7.4, 37° C.): 29.4 × 10^−6 cm/s
- permeability coefficient (Papp) through Caco-2 cells (Caco-2 cells; 100 μM, 37° C., pH 7.4): high permeability coefficients

SMILES: C[C@H](CCC(=O)O)[C@H]1CC[C@H]2[C@@H]3[C@@H](O)C[C@@H]4C[C@H](O)CC[C@]4(C)[C@H]3CC[C@]12C [Comparative Example 2, ursodeoxycholic acid, reference compound]
- BILE ACID REDUCTION RATE (%) IN RAT MODEL WITH CHOLIC ACID LOADING (rats dosed cholic acid; 0.1 mg/kg oral, surfactant Tween 20 0.05%, cholic acid 200 mg/kg, portal vein blood 2 hours after administration): 3%
- ALT (rats dosed bile acid; control group 82 ± 17): 62 ± 9 IU/L
- AST (rats dosed bile acid; control group 157 ± 35): 109 ± 11 IU/L
- ALP (rats dosed bile acid; control group 593 ± 77): 453 ± 58 IU/L
- ALT ([2]; control group 200 ± 81): 98 ± 25 IU/L
- AST ([2]; control group 400 ± 160): 256 ± 64 IU/L
- ALP ([2]; control group 1120 ± 410): 785 ± 120 IU/L

SMILES: CCCCC1(CCCC)CS(=O)(=O)c2ccc(N(C)C)cc2C(c2cccc(NC(=S)Nc3ccc(C[N+]45CCC(c6ccccc6)(CC4)CC5)c(C)c3)c2)N1.[Br-] (stereo not drawn) [EXAMPLE P341]
- BILE ACID REDUCTION RATE (%) IN RAT MODEL WITH CHOLIC ACID LOADING (rats dosed cholic acid; [3]): 32%
- IC50 (rat IBAT; [3H]-taurocholate 8 μM): 4.3 nM
- CELL TOXICITY AGAINST Caco2 10 μM (Caco-2 cell): <1%
- CELL TOXICITY AGAINST Caco2 30 μM (Caco-2 cell): <1%
- LDL + VLDL REDUCTION RATE (%) IN CHOLESTEROL FED RAT MODEL (THERAPEUTIC MODEL) [1]: 33%
- IC50 (human IBAT; [3H]-taurocholate 8 μM): 22 nM
